Activity calls are given as the source filed them. Rule as the data show it, for most assays here: actives have a measured Kd and inactives only a lower limit.
What was measured:
[1] = target: T1, NUAK family SNF1-like kinase 2 (Homo sapiens, UniProt Q9H093)
T1 sequence (Q9H093 whole entry): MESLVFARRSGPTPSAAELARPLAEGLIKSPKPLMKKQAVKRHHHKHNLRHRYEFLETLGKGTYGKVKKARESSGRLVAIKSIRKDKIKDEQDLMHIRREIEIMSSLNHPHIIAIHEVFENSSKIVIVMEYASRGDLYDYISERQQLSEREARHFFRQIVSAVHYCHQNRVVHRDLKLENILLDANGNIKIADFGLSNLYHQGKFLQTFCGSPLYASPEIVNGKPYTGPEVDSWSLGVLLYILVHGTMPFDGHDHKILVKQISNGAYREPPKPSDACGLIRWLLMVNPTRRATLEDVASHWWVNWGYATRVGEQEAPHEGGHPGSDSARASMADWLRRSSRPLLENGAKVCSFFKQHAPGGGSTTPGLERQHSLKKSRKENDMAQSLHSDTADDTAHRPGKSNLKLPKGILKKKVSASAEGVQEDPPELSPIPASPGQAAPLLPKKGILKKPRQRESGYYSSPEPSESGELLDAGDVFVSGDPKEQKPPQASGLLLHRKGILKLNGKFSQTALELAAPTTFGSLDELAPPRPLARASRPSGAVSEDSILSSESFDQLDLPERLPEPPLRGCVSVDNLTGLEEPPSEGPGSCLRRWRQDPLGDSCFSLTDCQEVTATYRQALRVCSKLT

[2] = target: Dual specificity mitogen-activated protein kinase kinase 2 (Homo sapiens, UniProt P36507)
[3] = target: T2, Serine/threonine-protein kinase TAO1 (Homo sapiens, UniProt Q7L7X3)
T2 sequence (Q7L7X3 whole entry): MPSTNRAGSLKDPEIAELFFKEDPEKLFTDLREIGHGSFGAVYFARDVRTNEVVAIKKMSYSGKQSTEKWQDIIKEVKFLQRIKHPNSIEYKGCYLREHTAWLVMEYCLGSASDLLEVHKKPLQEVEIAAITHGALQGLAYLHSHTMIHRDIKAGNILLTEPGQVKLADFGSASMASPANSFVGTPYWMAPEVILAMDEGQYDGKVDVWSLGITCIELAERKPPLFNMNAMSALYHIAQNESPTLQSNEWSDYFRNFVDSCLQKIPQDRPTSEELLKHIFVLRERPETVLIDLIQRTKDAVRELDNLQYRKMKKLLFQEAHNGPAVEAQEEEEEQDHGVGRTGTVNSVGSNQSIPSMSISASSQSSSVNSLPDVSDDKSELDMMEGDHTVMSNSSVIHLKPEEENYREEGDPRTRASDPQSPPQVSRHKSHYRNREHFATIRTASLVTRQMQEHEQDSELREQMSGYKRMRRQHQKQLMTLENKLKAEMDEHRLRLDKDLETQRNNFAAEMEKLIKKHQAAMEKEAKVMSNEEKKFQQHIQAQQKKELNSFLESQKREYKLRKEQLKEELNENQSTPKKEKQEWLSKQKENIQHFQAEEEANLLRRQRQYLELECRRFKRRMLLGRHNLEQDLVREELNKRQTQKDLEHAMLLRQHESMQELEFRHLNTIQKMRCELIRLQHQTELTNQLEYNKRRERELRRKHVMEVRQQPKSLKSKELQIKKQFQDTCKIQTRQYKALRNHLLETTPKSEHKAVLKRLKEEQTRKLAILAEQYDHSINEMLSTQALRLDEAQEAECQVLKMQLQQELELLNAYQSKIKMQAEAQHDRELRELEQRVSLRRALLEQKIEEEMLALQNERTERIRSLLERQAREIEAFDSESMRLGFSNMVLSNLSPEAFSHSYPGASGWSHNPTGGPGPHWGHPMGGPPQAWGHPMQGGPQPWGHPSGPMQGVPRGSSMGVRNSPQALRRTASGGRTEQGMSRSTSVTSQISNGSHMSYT

[4] = target: Mitogen-activated protein kinase kinase kinase kinase 5 (Homo sapiens, UniProt Q9Y4K4)
Chain of Mitogen-activated protein kinase kinase kinase kinase 5 (Q9Y4K4 whole entry): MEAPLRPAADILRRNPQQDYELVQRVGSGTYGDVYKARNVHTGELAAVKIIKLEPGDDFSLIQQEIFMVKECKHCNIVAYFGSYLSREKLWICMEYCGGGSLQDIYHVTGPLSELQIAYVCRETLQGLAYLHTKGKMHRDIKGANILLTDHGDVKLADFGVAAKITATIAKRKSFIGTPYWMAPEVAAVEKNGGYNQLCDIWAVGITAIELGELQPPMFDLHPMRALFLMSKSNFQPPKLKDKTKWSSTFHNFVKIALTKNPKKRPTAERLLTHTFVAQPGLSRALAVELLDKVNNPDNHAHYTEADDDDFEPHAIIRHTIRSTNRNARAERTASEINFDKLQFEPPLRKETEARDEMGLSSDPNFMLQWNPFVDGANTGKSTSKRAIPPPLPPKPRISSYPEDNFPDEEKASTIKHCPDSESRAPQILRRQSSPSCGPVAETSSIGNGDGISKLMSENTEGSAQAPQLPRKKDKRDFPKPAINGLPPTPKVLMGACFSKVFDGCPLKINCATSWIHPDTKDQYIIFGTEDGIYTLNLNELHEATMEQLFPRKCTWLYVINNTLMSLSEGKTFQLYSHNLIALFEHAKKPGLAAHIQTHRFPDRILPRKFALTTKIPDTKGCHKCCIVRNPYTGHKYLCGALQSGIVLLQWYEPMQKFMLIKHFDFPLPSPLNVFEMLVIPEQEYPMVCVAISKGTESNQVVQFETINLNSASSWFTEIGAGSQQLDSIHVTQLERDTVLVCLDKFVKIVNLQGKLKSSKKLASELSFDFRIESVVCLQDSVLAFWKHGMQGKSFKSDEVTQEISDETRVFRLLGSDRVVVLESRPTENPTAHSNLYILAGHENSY

[5] = target: Citron Rho-interacting kinase (Homo sapiens, UniProt O14578)
Chain of Citron Rho-interacting kinase (O14578 whole entry): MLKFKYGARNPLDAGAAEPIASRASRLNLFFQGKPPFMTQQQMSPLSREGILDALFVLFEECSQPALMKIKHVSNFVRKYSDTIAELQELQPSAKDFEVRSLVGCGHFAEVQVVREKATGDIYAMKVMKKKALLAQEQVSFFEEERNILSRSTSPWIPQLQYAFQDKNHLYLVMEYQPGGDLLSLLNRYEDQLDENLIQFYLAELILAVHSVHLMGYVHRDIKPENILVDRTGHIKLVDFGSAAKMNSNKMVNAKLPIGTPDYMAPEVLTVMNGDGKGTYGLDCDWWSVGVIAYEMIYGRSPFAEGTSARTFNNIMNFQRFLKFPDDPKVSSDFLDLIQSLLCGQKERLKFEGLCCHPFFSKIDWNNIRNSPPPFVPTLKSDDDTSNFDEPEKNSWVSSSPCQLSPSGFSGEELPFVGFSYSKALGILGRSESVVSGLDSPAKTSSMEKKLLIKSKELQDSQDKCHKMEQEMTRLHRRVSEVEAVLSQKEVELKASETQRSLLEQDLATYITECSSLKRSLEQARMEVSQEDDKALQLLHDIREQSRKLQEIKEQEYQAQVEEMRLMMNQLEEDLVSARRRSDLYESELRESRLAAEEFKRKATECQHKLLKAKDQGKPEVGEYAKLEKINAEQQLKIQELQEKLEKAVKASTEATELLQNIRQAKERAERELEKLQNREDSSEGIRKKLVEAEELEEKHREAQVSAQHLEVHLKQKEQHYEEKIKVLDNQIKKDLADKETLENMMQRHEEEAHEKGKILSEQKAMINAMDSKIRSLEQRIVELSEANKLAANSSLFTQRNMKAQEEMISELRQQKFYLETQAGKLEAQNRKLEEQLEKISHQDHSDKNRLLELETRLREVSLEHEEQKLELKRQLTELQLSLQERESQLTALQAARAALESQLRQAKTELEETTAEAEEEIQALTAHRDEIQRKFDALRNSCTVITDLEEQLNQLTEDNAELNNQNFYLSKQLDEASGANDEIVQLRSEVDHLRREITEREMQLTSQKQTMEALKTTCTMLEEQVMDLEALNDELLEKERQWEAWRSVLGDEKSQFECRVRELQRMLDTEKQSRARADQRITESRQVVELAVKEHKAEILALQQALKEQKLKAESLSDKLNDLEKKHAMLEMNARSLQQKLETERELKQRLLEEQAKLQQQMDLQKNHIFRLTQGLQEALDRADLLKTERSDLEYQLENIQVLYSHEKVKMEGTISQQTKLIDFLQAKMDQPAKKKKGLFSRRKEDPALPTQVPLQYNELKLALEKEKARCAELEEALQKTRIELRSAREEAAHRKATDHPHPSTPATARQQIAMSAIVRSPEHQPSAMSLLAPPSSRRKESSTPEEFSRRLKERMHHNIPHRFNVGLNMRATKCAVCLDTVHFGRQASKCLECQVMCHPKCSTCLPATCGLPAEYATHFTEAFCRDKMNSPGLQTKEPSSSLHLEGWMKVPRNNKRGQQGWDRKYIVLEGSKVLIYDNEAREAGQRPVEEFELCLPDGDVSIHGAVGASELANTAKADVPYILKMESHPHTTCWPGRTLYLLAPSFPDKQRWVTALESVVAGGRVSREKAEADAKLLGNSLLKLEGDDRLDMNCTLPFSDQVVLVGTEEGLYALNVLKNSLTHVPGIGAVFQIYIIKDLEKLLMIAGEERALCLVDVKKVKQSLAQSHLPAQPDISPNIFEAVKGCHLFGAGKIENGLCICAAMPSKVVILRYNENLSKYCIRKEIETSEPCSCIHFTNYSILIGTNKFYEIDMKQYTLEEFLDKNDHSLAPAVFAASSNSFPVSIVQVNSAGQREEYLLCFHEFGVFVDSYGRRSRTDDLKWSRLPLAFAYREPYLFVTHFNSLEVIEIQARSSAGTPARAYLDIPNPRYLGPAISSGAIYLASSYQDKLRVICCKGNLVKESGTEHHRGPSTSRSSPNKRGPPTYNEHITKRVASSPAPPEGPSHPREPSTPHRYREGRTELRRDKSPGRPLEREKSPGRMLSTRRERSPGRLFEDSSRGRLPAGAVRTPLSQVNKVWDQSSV

[6] = target: T3, Serine/threonine-protein kinase PLK4 (Homo sapiens, UniProt O00444)
T3 sequence (O00444 whole entry): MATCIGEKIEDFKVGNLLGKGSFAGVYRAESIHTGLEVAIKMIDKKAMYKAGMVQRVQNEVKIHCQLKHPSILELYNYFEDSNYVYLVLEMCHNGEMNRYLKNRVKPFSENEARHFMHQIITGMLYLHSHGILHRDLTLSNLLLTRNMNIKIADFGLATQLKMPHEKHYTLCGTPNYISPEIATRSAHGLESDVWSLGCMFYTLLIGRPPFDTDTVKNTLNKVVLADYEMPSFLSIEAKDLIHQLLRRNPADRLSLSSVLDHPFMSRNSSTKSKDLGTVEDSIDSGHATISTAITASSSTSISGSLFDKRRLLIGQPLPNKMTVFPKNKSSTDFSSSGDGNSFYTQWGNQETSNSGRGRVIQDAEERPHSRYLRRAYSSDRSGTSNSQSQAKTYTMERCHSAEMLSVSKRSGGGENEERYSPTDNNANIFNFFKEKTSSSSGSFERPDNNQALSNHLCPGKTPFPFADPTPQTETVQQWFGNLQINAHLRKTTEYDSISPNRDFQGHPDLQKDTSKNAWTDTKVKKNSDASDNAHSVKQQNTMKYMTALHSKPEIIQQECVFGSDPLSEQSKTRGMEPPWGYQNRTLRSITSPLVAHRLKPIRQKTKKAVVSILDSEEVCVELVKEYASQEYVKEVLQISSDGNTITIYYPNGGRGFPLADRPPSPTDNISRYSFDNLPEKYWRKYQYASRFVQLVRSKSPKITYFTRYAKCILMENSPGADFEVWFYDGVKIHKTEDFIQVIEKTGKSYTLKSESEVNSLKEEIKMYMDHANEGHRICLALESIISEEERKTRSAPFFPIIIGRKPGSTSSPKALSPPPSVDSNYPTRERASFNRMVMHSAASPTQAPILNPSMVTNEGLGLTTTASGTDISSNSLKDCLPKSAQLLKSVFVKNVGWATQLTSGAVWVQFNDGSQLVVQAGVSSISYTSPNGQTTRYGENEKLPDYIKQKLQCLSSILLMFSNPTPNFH

[7] = target: Chromodomain-helicase-DNA-binding protein 4 (Homo sapiens, UniProt Q14839)
Chain of Chromodomain-helicase-DNA-binding protein 4 (Q14839 whole entry): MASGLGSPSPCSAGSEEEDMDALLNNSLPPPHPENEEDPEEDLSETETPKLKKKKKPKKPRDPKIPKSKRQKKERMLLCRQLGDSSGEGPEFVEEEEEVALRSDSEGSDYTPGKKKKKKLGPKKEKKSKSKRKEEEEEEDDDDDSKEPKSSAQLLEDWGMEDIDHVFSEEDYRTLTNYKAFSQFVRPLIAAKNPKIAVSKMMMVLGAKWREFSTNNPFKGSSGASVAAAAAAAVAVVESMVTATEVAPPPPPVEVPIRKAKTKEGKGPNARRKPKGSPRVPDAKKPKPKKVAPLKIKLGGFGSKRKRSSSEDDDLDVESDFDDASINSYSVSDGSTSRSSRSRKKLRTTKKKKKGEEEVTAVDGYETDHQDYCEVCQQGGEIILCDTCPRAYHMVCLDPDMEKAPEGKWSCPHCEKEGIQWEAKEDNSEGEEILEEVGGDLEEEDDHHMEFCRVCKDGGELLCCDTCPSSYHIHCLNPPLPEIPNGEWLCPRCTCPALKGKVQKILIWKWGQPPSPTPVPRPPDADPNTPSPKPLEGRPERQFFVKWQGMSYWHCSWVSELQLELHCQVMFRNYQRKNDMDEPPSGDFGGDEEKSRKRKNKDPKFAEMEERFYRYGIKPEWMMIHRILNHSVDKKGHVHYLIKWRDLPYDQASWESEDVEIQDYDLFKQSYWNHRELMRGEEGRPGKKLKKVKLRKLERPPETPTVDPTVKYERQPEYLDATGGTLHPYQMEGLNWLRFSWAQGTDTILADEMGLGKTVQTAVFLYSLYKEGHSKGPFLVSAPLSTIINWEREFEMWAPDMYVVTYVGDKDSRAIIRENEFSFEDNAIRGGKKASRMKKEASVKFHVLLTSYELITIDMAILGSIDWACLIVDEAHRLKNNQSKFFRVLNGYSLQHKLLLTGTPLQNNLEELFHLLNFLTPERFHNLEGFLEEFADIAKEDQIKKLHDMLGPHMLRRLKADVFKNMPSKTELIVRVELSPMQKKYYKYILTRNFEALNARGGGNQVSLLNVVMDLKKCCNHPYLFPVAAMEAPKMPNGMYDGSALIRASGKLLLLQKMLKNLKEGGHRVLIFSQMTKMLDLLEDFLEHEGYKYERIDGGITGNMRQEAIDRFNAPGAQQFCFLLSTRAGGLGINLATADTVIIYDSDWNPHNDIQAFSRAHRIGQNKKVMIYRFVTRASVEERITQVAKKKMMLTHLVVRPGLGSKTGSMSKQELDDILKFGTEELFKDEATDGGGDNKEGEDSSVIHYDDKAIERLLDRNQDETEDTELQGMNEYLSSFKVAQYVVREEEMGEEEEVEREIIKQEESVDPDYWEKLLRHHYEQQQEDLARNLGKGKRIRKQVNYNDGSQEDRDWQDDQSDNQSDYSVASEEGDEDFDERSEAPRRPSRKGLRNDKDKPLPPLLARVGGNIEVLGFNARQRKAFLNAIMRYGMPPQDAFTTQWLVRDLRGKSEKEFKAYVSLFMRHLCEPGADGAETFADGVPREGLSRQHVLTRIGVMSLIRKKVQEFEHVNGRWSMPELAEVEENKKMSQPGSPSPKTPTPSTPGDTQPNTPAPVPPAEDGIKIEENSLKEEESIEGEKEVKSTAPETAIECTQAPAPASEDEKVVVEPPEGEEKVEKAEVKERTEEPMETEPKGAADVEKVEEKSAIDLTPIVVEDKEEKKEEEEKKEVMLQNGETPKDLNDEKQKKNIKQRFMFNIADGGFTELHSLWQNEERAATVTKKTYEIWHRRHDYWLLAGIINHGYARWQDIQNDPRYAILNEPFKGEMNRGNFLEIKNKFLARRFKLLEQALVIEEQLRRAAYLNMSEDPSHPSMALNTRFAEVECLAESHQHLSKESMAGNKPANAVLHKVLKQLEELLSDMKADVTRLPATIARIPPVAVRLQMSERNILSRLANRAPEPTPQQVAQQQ
Also: in the data inactive means no Kd found up to 30 µM.

C#Cc1cccc(Nc2ncnc3cc4c(cc23)OCCOCCOCCO4)c1 [ICOTINIB]
Kd [1]: > 30 µM (inactive)
Kd [2]: > 30 µM (inactive)
Kd [3]: > 30 µM (inactive)
Kd [4]: > 30 µM (inactive)
Kd [5]: > 30 µM (inactive)
Kd [6]: > 30 µM (inactive)
Kd [7]: > 30 µM (inactive)

COc1cc2ncnc3c2cc1OCCCCCN(C)Cc1ccc(Br)cc1N3 [JNJ-26483327]
Kd [1]: > 30 µM (inactive)
Kd [2]: > 30 µM (inactive)
Kd [3]: > 30 µM (inactive)
Kd [4]: > 30 µM (inactive)
Kd [5]: > 30 µM (inactive)
Kd [6]: > 30 µM (inactive)
Kd [7]: > 30 µM (inactive)

Cc1ccc(C(=O)Nc2ccc(Oc3cc4cnn(C)c4cc3-c3cn[nH]c3)c(F)c2)c(=O)n1-c1ccc(F)cc1 [MERESTINIB]
Kd [1]: > 30 µM (inactive)
Kd [2]: > 30 µM (inactive)
Kd [3]: > 30 µM (inactive)
Kd [4]: > 30 µM (inactive)
Kd [5]: > 30 µM (inactive)
Kd [6]: 1.61 µM (active)
Kd [7]: > 30 µM (inactive)

COc1cccc2cc(-c3nc([C@H]4CC[C@H](C(=O)O)CC4)n4ncnc(N)c34)[nH]c12 [OSI-027]
Kd [1]: > 30 µM (inactive)
Kd [2]: > 30 µM (inactive)
Kd [3]: > 30 µM (inactive)
Kd [4]: > 30 µM (inactive)
Kd [5]: > 30 µM (inactive)
Kd [6]: > 30 µM (inactive)
Kd [7]: > 30 µM (inactive)

O=C(Nc1ccc(OC(F)(F)F)cc1)c1sccc1NCc1ccnc2ccccc12 [OSI-930]
Kd [1]: > 30 µM (inactive)
Kd [2]: > 30 µM (inactive)
Kd [3]: > 30 µM (inactive)
Kd [4]: > 30 µM (inactive)
Kd [5]: > 30 µM (inactive)
Kd [6]: > 30 µM (inactive)
Kd [7]: > 30 µM (inactive)

C=CC(=O)Nc1cc(Nc2nccc(-c3cn(C)c4ccccc34)n2)c(OC)cc1N(C)CCN(C)C [OSIMERTINIB]
Kd [1]: > 30 µM (inactive)
Kd [2]: > 30 µM (inactive)
Kd [3]: > 30 µM (inactive)
Kd [4]: > 30 µM (inactive)
Kd [5]: > 30 µM (inactive)
Kd [6]: > 30 µM (inactive)
Kd [7]: > 30 µM (inactive)

FC(F)(F)c1ccc(CNc2ccc(Cc3c[nH]c4ncc(Cl)cc34)cn2)cn1 [PEXIDARTINIB]
Kd [1]: > 30 µM (inactive)
Kd [2]: > 30 µM (inactive)
Kd [3]: > 30 µM (inactive)
Kd [4]: > 30 µM (inactive)
Kd [5]: > 30 µM (inactive)
Kd [6]: > 30 µM (inactive)
Kd [7]: > 30 µM (inactive)

CC(C)CC(=O)Nc1[nH]nc2c1CN(C(=O)C1CCN(C)CC1)C2(C)C [PHA-793887]
Kd [1]: > 30 µM (inactive)
Kd [2]: > 30 µM (inactive)
Kd [3]: > 30 µM (inactive)
Kd [4]: > 30 µM (inactive)
Kd [5]: > 30 µM (inactive)
Kd [6]: > 30 µM (inactive)
Kd [7]: > 30 µM (inactive)

COCCN1CCN(Cc2ccc(-c3n[nH]c4c3C(=O)c3c(NC(=O)NN5CCOCC5)cccc3-4)cc2)CC1 [RGB-286638]
Kd [1]: > 30 µM (inactive)
Kd [2]: > 30 µM (inactive)
Kd [3]: > 30 µM (inactive)
Kd [4]: > 30 µM (inactive)
Kd [5]: 0.763 µM (active)
Kd [6]: > 30 µM (inactive)
Kd [7]: > 30 µM (inactive)

C=CC(=O)Nc1cccc(Nc2nc(Nc3ccc(N4CCN(C(C)=O)CC4)cc3OC)ncc2C(F)(F)F)c1 [ROCILETINIB]
Kd [1]: > 30 µM (inactive)
Kd [2]: > 30 µM (inactive)
Kd [3]: > 30 µM (inactive)
Kd [4]: > 30 µM (inactive)
Kd [5]: > 30 µM (inactive)
Kd [6]: > 30 µM (inactive)
Kd [7]: > 30 µM (inactive)

O=C(O)c1ccc2c(c1)nc(Nc1cccc(Cl)c1)c1ccncc12 [SILMITASERTIB]
Kd [1]: > 30 µM (inactive)
Kd [2]: > 30 µM (inactive)
Kd [3]: 2.08 µM (active)
Kd [4]: > 30 µM (inactive)
Kd [5]: > 30 µM (inactive)
Kd [6]: > 30 µM (inactive)
Kd [7]: > 30 µM (inactive)

Cc1cc(C(=O)Nc2cc(Oc3ccc4nc(NC(=O)C5CC5)cn4n3)ccc2C)n(C)n1 [TAK-593]
Kd [1]: > 30 µM (inactive)
Kd [2]: > 30 µM (inactive)
Kd [3]: > 30 µM (inactive)
Kd [4]: > 30 µM (inactive)
Kd [5]: > 30 µM (inactive)
Kd [6]: > 30 µM (inactive)
Kd [7]: > 30 µM (inactive)

Cn1c(=O)c(F)c(Nc2ccc(I)cc2F)c2c(=O)n(C[C@@H](O)CO)cnc21 [TAK-733]
Kd [1]: > 30 µM (inactive)
Kd [2]: 0.02 µM (active)
Kd [3]: > 30 µM (inactive)
Kd [4]: > 30 µM (inactive)
Kd [5]: > 30 µM (inactive)
Kd [6]: > 30 µM (inactive)
Kd [7]: > 30 µM (inactive)

O[C@H]1CC[C@H](Nc2ncc3nc(Nc4c(F)cc(F)cc4F)n([C@H]4CCOC4)c3n2)CC1 [TANZISERTIB]
Kd [1]: > 30 µM (inactive)
Kd [2]: > 30 µM (inactive)
Kd [3]: > 30 µM (inactive)
Kd [4]: > 30 µM (inactive)
Kd [5]: > 30 µM (inactive)
Kd [6]: > 30 µM (inactive)
Kd [7]: > 30 µM (inactive)

CNC(=O)c1cc(COc2nnc(Nc3ccc(Cl)cc3)c3ccoc23)ccn1 [TELATINIB]
Kd [1]: > 30 µM (inactive)
Kd [2]: > 30 µM (inactive)
Kd [3]: > 30 µM (inactive)
Kd [4]: > 30 µM (inactive)
Kd [5]: > 30 µM (inactive)
Kd [6]: > 30 µM (inactive)
Kd [7]: > 30 µM (inactive)

C[C@@H]1COC(Nc2ccc3ncnc(Nc4ccc(OCc5nccs5)c(Cl)c4)c3c2)=N1 [VARLITINIB]
Kd [1]: > 30 µM (inactive)
Kd [2]: > 30 µM (inactive)
Kd [3]: > 30 µM (inactive)
Kd [4]: > 30 µM (inactive)
Kd [5]: > 30 µM (inactive)
Kd [6]: > 30 µM (inactive)
Kd [7]: > 30 µM (inactive)

CNC(=O)c1cccc(-c2ccc3c(N4CCOC[C@@H]4C)nc(N4CCOC[C@@H]4C)nc3n2)c1 [VISTUSERTIB]
Kd [1]: > 30 µM (inactive)
Kd [2]: > 30 µM (inactive)
Kd [3]: > 30 µM (inactive)
Kd [4]: > 30 µM (inactive)
Kd [5]: > 30 µM (inactive)
Kd [6]: > 30 µM (inactive)
Kd [7]: > 30 µM (inactive)

COc1cc2ncnc(Nc3ccc(O)cc3)c2cc1OC [WHI-P131]
Kd [1]: > 30 µM (inactive)
Kd [2]: > 30 µM (inactive)
Kd [3]: > 30 µM (inactive)
Kd [4]: > 30 µM (inactive)
Kd [5]: > 30 µM (inactive)
Kd [6]: > 30 µM (inactive)
Kd [7]: > 30 µM (inactive)

Reference: ChEMBL document CHEMBL3991601, “The target landscape of clinical kinase drugs” (Science, 2017)
